Patent US7071168B2, “Anti-cancer compounds and methods related thereto” (The Regents of the University of Colorado, priority 1998, dated 2006)

What was measured:
[1] = test system: SCLC strain SHP-77; test: Colorimetric tetrazolium (MTT) assay for cell survival, SCLC strain SHP-77; format: cell-based, human
Method in brief: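 MTT assay: cells seeded overnight, treated in triplicate across a concentration range for 4 days at 37 °C, 5% CO2. On day 5, MTT was added for 4 h; formazan was dissolved in acidified isopropanol and absorbance read.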

[2] = test system: bradykinin response of isolated guinea pig ileum; test: Anti-bradykinin activity on isolated guinea pig ileum; settings: higher numbers indicate higher potency
Method in brief: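 Bradykinin concentration-effect curves were run in the absence and presence of compound. Tissue: 25 mm terminal ileum from male Hartley guinea pigs fasted overnight, held at 1 g tension in O2/CO2-bubbled Krebs' solution after 1 h equilibration.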

[3] = molecular target: T1, cloned human bradykinin B2 receptors (Homo sapiens, UniProt P30411); test: Anti-bradykinin activity on cloned human B2 receptors (CHO cells, Cytosensor microphysiometer); format: cell-based; settings: higher numbers indicate higher potency
T1 sequence (P30411 1-391): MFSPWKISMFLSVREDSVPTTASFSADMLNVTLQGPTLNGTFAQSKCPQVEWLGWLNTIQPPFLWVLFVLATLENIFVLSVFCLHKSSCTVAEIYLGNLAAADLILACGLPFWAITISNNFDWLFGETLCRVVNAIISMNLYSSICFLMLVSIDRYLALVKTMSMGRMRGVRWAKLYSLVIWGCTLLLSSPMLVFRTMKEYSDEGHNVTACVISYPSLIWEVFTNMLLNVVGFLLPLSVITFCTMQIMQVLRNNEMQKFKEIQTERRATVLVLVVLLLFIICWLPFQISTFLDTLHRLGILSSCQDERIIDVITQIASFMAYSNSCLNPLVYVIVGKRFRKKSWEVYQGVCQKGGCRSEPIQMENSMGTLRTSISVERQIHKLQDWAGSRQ
Protocol: In general, Anti-bradykinin activity was determined by the classical guinea pig ileum assay and on Chinese hamster ovary (CHO) cells expressing cloned human bradykinin B2 receptors. Anti-tumor activity was determined on cultured human cancer cell lines using the standard tetrazolium (MTT) assay.
Chinese hamster ovary cells containing cloned and expressed human bradykinin B2 receptors were grown in cell cups of the Cytosensor microphysiometer in Ham's F-12 medium supplemented with sodium pyruvate and 10% FBS (Gibco 11765-054). For assay the cells were transferred to Ham's F-12 without bicarbonate or serum (Gibco 21700-075) and placed in the Cytosensor. Concentration-response curves were constructed to bradykinin in the presence or absence of new compounds.

[4] = isolated guinea pig ileum, pD2 of bradykinin is 7.4
[5] = cloned human B2 receptors, pD2 for bradykinin is 11

Row | Compound | MTT: ED50 for killing of SCLC strain SHP-77 in vitro ([1]; Table 1, SHP-77, MTT, 4 days) | GPI: pA2 for bradykinin antagonist activity on isolated guinea pig ileum ([2]; Table 1) | HUMAN: pA2 for bradykinin antagonist potency on cloned human B2 receptors ([3]; Table 1) | MTT: ED50 for killing of SCLC strain SHP-77 in vitro ([1]; SCLC strain SHP-77 in vitro) | GPI: pA2 for bradykinin antagonist activity on isolated guinea pig ileum [2, 4] | HUMAN: pA2 for bradykinin antagonist potency on cloned human B2 receptors [3, 5]
1 | DDD-(Pac-2Nal-Arg-NH2)2 [M498] | 24 µM | 4.9 | Inact |  |  | 
2 | DDD-(Arg-DIgl-Oic-Arg)2 [M226] | 35 µM | 5.7 | Inact |  |  | 
3 | F5c-2Nal-Arg-NH2 [M450] | 26 µM | 4.9 | Inact |  |  | 
4 | DDD-(DArg-2Nal-Arg-NH2)2 [M510] | 8 µM | Inact | 11 |  |  | 
5 | CN1CCN(NC(=O)C(Cc2ccc3ccccc3c2)NC(=O)C=Cc2c(F)c(F)c(F)c(F)c2F)CC1 (stereo not drawn) [M470] |  |  |  | 11 µM | 5.2 | Inact
6 | O=C(C=Cc1ccc(NC(=O)CCCCCCCCCCC(=O)Nc2ccc(C=CC(=O)NC(Cc3ccc4ccccc4c3)C(=O)NC3CCNCC3)cc2)cc1)NC(Cc1ccc2ccccc2c1)C(=O)NC1CCNCC1 (stereo not drawn) [M606] |  |  |  | 30 µM | 5.0 | 10
7 | DDD-(pABz-2Nal-Arg-NH2)2 [M500] | 40 µM | 0 | 11.4 |  |  | 
8 | CC1(C)CC(NC(=O)[C@H](Cc2csc3ccccc23)NC(=O)CCCCCCCCCCC(=O)N[C@@H](Cc2csc3ccccc23)C(=O)NC2CC(C)(C)NC(C)(C)C2)CC(C)(C)N1 [M430] |  |  |  | 18 µM | 5.3 | 11.3
9 | α-DDD-(Lys-B9430-OMe)2 [M600] | 1.2 µM | 6.4 | Ag |  |  | 
10 | DDD-(DArg-Arg-Aud-Pac-2Nal-Arg)2 [M516] | 1.4 µM | 0 | Ag |  |  | 
11 | DDD-(Lys-Pac-Gly-mABz-2Nal-NH2)2 [M494] | 33 µM | 5.1 | Inact |  |  | 
12 | DDD-(pABz-2Nal-Arg)2 [M400] | 22 µM | 5.1 | 11.5 |  |  | 
13 | CN1CCN(NC(=O)C(Cc2ccc3ccccc3c2)NC(=O)c2cccc(NC(=O)C=Cc3c(F)c(F)c(F)c(F)c3F)c2)CC1 (stereo not drawn) [M492] |  |  |  | 45 µM | 5.1 | Inact
14 | CN(C)c1ccc(C=CC(=O)NC(Cc2ccc3ccccc3c2)C(=O)N2CCSCC2)cc1 (stereo not drawn) [M478] |  |  |  | 30 µM | 5.1 | Inact
15 | F5c-2Nal-Arg [M446] | 60 µM | 4.7 | 9 |  |  | 
16 | Cc1ccc(CSCC(NC(=O)C=Cc2c(F)c(F)c(F)c(F)c2F)C(=O)NC2CC(C)(C)NC(C)(C)C2)cc1 (stereo not drawn) [M456] |  |  |  | 4.7 µM | 5.3 | Inact
